Results reported in PubChem BioAssay (NCI).
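Five compound concentrations were applied to cells in 96-well plates for 48 hours; endpoints were derived by simple linear interpolation of the resulting dose-response curve. At the TGI there is no net growth.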

What was measured:
Test in all cases: NCI tumour cell line growth inhibition, 48 h
XF 498 CNS = tested on: XF 498 CNS
P388 leukemia = tested on: P388 leukemia
DMS 273 small cell lung = tested on: DMS 273 small cell lung
SNB-78 CNS = tested on: SNB-78 CNS
P388/ADR leukemia = tested on: P388/ADR leukemia
SN12K1 renal = tested on: SN12K1 renal
HOP-18 NSCLC = tested on: HOP-18 NSCLC
RXF-631 renal = tested on: RXF-631 renal

Row | SMILES | TGI (XF 498 CNS) | TGI (P388 leukemia) | TGI (DMS 273 small cell lung) | TGI (SNB-78 CNS) | TGI (P388/ADR leukemia) | TGI (SN12K1 renal) | TGI (HOP-18 NSCLC) | TGI (RXF-631 renal)
1 | O=C1C(Cl)N(c2ccc(Cl)cc2)C1c1c[nH]c2ccccc12 (stereo not drawn) | 31.3 µM |  |  |  |  |  |  | 
2 | O=C(O)c1ccc(Nc2c3ccccc3nc3ccccc23)cc1 |  | > 46.6 µM | > 100 µM | > 100 µM | 98.4 µM | > 100 µM | > 100 µM | 
3 | CC(C)(C)[Si](OC1CC(n2cnc3c(N)ncnc32)OC1CO)(c1ccccc1)c1ccccc1 (stereo not drawn) | 51.3 µM |  | 35.8 µM | > 100 µM |  |  | > 100 µM | 
4 | COc1ccc(C2COc3cc(OC(C)=O)c(OC(C)=O)cc3C2)cc1 (stereo not drawn) | 23.9 µM | 33.5 µM | 52.7 µM | 81.4 µM | 17.7 µM | 35.7 µM | 19.3 µM | 
5 | COc1ccc(N2C(=O)/C(=C(\C)c3cc4ccccc4oc3=O)N=C2c2cc([N+](=O)[O-])ccc2Cl)cc1 |  |  |  | > 100 µM |  |  | > 100 µM | > 100 µM
6 | CC(=O)N(C)c1ccc(Nc2cc(C)[nH]c3ccc4ncnc4c23)cc1 | 5.92 µM | 49.2 µM | 24.3 µM | 53.6 µM | 228 µM | 16.6 µM | 53.1 µM | 
